Reference: patent US20240247035A1, “STAPLED ANTIMICROBIAL PEPTIDES (STAMPS) AND USES THEREOF” (Lytica Therapeutics, Inc., priority 2021, published 2024)
≈ marks a conversion by molar mass, not a printed value. Bridge positions count the residues as written; N and C are the ends. Square brackets hold non-standard residues; d marks the D form. Peptide text beside a SMILES is read from it. S5 = C=CCCC[C@](C)(N)C(=O)O

Legend:
[1] = 48 hours cytotoxicity assay (CellTiter-Glo), liver toxicity; type: cell-based; details: human
Description: (§1) Cell culture: RPTEC were maintained in MEM media supplemented with growth factors. HEPG2 cell line was maintained in Eagle's Minimum Essential Medium (EMEM) supplemented with fetal bovine serum to a final concentration of 10%.
48 hours cytotoxicity assay: Cells were plated in a 96-well format, and after 4 hour incubation to allow attachment, serial dilutions of StAMPs from a 5 mg/mL water stock, or vehicle, were then added to the cells in a final volume of 100 μl. After incubating at 37° C. for 48 hours, 100 μl of CellTiter-Glo® reagent was added to the cells, and the plates were incubated 10 minutes at room temperature. Luminescence was then measured on a microplate reader.
(§2) Renal toxicity was measured after 90 minutes of incubation, while liver toxicity was measured after 48 hours of incubation with StAMPs. N/A=not tested.

[2] = 90 minute cytotoxicity assay (LDH release), renal toxicity; type: cell-based; details: human
Description: as §1
90 minute cytotoxicity assay: Cells were plated in a 96-well format, and after overnight incubation, media was replaced with fresh media. Serial dilutions of StAMPs from a 5 mg/mL water stock, or vehicle, were added to the cells in a final volume of 100 μl. After incubating at 37° C. for 90 min, 50 μl of cell culture media was transferred to a clear 96-well plate, incubated with 50 μl of lactate dehydrogenase (LDH) assay reagent for 10 min, and absorbance measured at 490 nm on a microplate reader.
as §2

SMILES	IC50 at 48 hours [1] [µg/mL]	IC50 at 90 min [2] [µg/mL]
CC[C@H](C)[C@H](NC(=O)[C@H](CCCCN)NC(=O)[C@H](CCCCN)NC(=O)CNC(=O)[C@H](CCCCN)NC(=O)[C@]1(C)CCCC=CCCC[C@](C)(NC(=O)CN)C(=O)N[C@@H](Cc2ccccc2)C(=O)N[C@@H](CCCCN)C(=O)N[C@@H](CCCCN)C(=O)N1)C(=O)N[C@@H](CCCCN)C(=O)N[C@@H](CC(N)=O)C(=O)N[C@@H](CC(C)C)C(=O)N[C@@]1(C)CCCC=CCCC[C@@](C)(C(=O)N[C@@H](CCCCN)C(=O)NCC(N)=O)NC(=O)CNC(=O)[C@H](CO)NC(=O)[C@H]([C@@H](C)CC)NC1=O [compound 26] (H-G[S5]FKK[S5]KGKKIKNL[S5]ISG[S5]KG-NH2; staple 2-6, 15-19)	27 (≈ 11.6 µM)	32 (≈ 13.7 µM)
CC[C@H](C)[C@H](NC(=O)[C@H](CCCCN)NC(=O)[C@H](CCCCN)NC(=O)[C@H](CCCCN)NC(=O)[C@H](CCCCN)NC(=O)[C@]1(C)CCCC=CCCC[C@](C)(NC(=O)CN)C(=O)N[C@@H](Cc2ccccc2)C(=O)N[C@@H](CO)C(=O)N[C@@H](CCCCN)C(=O)N1)C(=O)N[C@@H](CCCCN)C(=O)N[C@@H](CC(N)=O)C(=O)N[C@@H](CC(C)C)C(=O)N[C@@]1(C)CCCC=CCCC[C@@](C)(C(=O)N[C@@H](CCCCN)C(=O)NCC(N)=O)NC(=O)CNC(=O)[C@H](CO)NC(=O)[C@H]([C@@H](C)CC)NC1=O [compound 27] (H-G[S5]FSK[S5]KKKKIKNL[S5]ISG[S5]KG-NH2; staple 2-6, 15-19)	35 (≈ 14.8 µM)	42 (≈ 17.8 µM)
CC[C@H](C)[C@H](NC(=O)[C@H](CCCCN)NC(=O)[C@H](CCCCN)NC(=O)CNC(=O)[C@H](CCCCN)NC(=O)[C@]1(C)CCCC=CCCC[C@](C)(NC(=O)CN)C(=O)N[C@@H](Cc2ccccc2)C(=O)N[C@@H](CO)C(=O)N[C@@H](CCCCN)C(=O)N1)C(=O)N[C@@H](CCCCN)C(=O)N[C@@H](CCCCN)C(=O)N[C@@H](CC(C)C)C(=O)N[C@@]1(C)CCCC=CCCC[C@@](C)(C(=O)N[C@@H](CCCCN)C(=O)NCC(N)=O)NC(=O)CNC(=O)[C@H](CO)NC(=O)[C@H]([C@@H](C)CC)NC1=O [compound 29] (H-G[S5]FSK[S5]KGKKIKKL[S5]ISG[S5]KG-NH2; staple 2-6, 15-19)	22 (≈ 9.55 µM)	27 (≈ 11.7 µM)
CC[C@H](C)[C@H](NC(=O)[C@H](CCCCN)NC(=O)[C@H](CCCCN)NC(=O)CNC(=O)[C@H](CCCCN)NC(=O)[C@]1(C)CCCC=CCCC[C@](C)(NC(=O)CN)C(=O)N[C@@H](Cc2ccccc2)C(=O)N[C@@H](CO)C(=O)N[C@@H](CCCCN)C(=O)N1)C(=O)N[C@@H](CCCCN)C(=O)N[C@@H](CC(N)=O)C(=O)N[C@@H](CCCCN)C(=O)N[C@@]1(C)CCCC=CCCC[C@@](C)(C(=O)N[C@@H](CCCCN)C(=O)NCC(N)=O)NC(=O)CNC(=O)[C@H](CO)NC(=O)[C@H]([C@@H](C)CC)NC1=O [compound 30] (H-G[S5]FSK[S5]KGKKIKNK[S5]ISG[S5]KG-NH2; staple 2-6, 15-19)	> 200	> 200
CC[C@H](C)[C@H](NC(=O)[C@H](CCCCN)NC(=O)[C@H](CCCCN)NC(=O)CNC(=O)[C@H](CCCCN)NC(=O)[C@]1(C)CCCC=CCCC[C@](C)(NC(=O)CN)C(=O)N[C@@H](Cc2ccccc2)C(=O)N[C@@H](CO)C(=O)N[C@@H](CCCCN)C(=O)N1)C(=O)N[C@@H](CCCCN)C(=O)N[C@@H](CC(N)=O)C(=O)N[C@@H](CC(C)C)C(=O)N[C@@]1(C)CCCC=CCCC[C@@](C)(C(=O)N[C@@H](CCCCN)C(=O)NCC(N)=O)NC(=O)CNC(=O)[C@H](CO)NC(=O)[C@H](CCCCN)NC1=O [compound 31] (H-G[S5]FSK[S5]KGKKIKNL[S5]KSG[S5]KG-NH2; staple 2-6, 15-19)	86 (≈ 37.3 µM)	116 (≈ 50.3 µM)
CC[C@H](C)[C@H](NC(=O)[C@H](CCCCN)NC(=O)[C@H](CCCCN)NC(=O)CNC(=O)[C@H](CCCCN)NC(=O)[C@]1(C)CCCC=CCCC[C@](C)(NC(=O)CN)C(=O)N[C@@H](Cc2ccccc2)C(=O)N[C@@H](CO)C(=O)N[C@@H](CCCCN)C(=O)N1)C(=O)N[C@@H](CCCCN)C(=O)N[C@@H](CC(N)=O)C(=O)N[C@@H](CC(C)C)C(=O)N[C@@]1(C)CCCC=CCCC[C@@](C)(C(=O)N[C@@H](CCCCN)C(=O)NCC(N)=O)NC(=O)CNC(=O)[C@H](CCCCN)NC(=O)[C@H]([C@@H](C)CC)NC1=O [compound 32] (H-G[S5]FSK[S5]KGKKIKNL[S5]IKG[S5]KG-NH2; staple 2-6, 15-19)	25 (≈ 10.7 µM)	33 (≈ 14.2 µM)
CC[C@H](C)[C@H](NC(=O)[C@H](CCCCN)NC(=O)[C@H](CCCCN)NC(=O)CNC(=O)[C@H](CCCCN)NC(=O)[C@]1(C)CCCC=CCCC[C@](C)(NC(=O)CN)C(=O)N[C@@H](Cc2ccccc2)C(=O)N[C@@H](CO)C(=O)N[C@@H](CCCCN)C(=O)N1)C(=O)N[C@@H](CCCCN)C(=O)N[C@@H](CC(N)=O)C(=O)N[C@@]1(C)CCCC=CCCC[C@@](C)(C(=O)N[C@@H](CC(C)C)C(=O)N[C@@H](CCCCN)C(=O)NCC(N)=O)NC(=O)[C@H](CO)NC(=O)[C@H]([C@@H](C)CC)NC(=O)[C@H](CC(C)C)NC1=O [compound 33] (H-G[S5]FSK[S5]KGKKIKN[S5]LIS[S5]LKG-NH2; staple 2-6, 14-18)	13 (≈ 5.54 µM)	11 (≈ 4.69 µM)
CC[C@H](C)[C@H](NC(=O)[C@H](CCCCN)NC(=O)[C@H](CCCCN)NC(=O)CNC(=O)[C@H](CCCCN)NC(=O)[C@]1(C)CCCC=CCCC[C@](C)(NC(=O)CN)C(=O)N[C@@H](Cc2ccccc2)C(=O)N[C@@H](CO)C(=O)N[C@@H](CCCCN)C(=O)N1)C(=O)N[C@@H](CCCCN)C(=O)N[C@@]1(C)CCCC=CCCC[C@@](C)(C(=O)NCC(=O)N[C@@H](CC(C)C)C(=O)N[C@@H](CCCCN)C(=O)NCC(N)=O)NC(=O)[C@H]([C@@H](C)CC)NC(=O)[C@H](CC(C)C)NC(=O)[C@H](CC(C)C)NC1=O [compound 34] (H-G[S5]FSK[S5]KGKKIK[S5]LLI[S5]GLKG-NH2; staple 2-6, 13-17)	22 (≈ 9.5 µM)	35 (≈ 15.1 µM)
CC[C@H](C)[C@H](NC(=O)[C@]1(C)CCCC=CCCC[C@](C)(NC(=O)[C@H](CCCCN)NC(=O)[C@H](CCCCN)NC(=O)CNC(=O)[C@H](CCCCN)NC(=O)[C@]2(C)CCCC=CCCC[C@](C)(NC(=O)CN)C(=O)N[C@@H](Cc3ccccc3)C(=O)N[C@@H](CO)C(=O)N[C@@H](CCCCN)C(=O)N2)C(=O)N[C@@H](CCCCN)C(=O)N[C@@H](CC(N)=O)C(=O)N[C@@H](CC(C)C)C(=O)N1)C(=O)N[C@@H](CO)C(=O)NCC(=O)N[C@@H](CC(C)C)C(=O)N[C@@H](CCCCN)C(=O)NCC(N)=O [compound 35] (H-G[S5]FSK[S5]KGKK[S5]KNL[S5]ISGLKG-NH2; staple 2-6, 11-15)	23 (≈ 10 µM)	27 (≈ 11.8 µM)
CC[C@H](C)[C@H](NC(=O)[C@H](CCCCN)NC(=O)[C@H](CCCCN)NC(=O)CNC(=O)[C@H](CCCCN)NC(=O)[C@]1(C)CCCC=CCCC[C@](C)(NC(=O)CN)C(=O)N[C@@H](Cc2ccccc2)C(=O)N[C@@H](CO)C(=O)N[C@@H](CCCCN)C(=O)N1)C(=O)N[C@@H](CCCCN)C(=O)N[C@@H](CC(N)=O)C(=O)N[C@@H](CC(C)C)C(=O)N[C@@H](CC(C)C)C(=O)N[C@@]1(C)CCCC=CCCC[C@@](C)(C(=O)NCC(N)=O)NC(=O)[C@H](CC(C)C)NC(=O)CNC(=O)[C@H](CO)NC1=O [compound 36] (H-G[S5]FSK[S5]KGKKIKNLL[S5]SGL[S5]G-NH2; staple 2-6, 16-20)	67 (≈ 29.5 µM)	63 (≈ 27.7 µM)
CC[C@H](C)[C@H](NC(=O)[C@H](CCCCN)NC(=O)[C@H](CCCCN)NC(=O)CNC(=O)[C@H](CCCCN)NC(=O)[C@]1(C)CCCC=CCCC[C@](C)(NC(=O)CN)C(=O)N[C@@H](Cc2ccccc2)C(=O)N[C@@H](CO)C(=O)N[C@@H](CCCCN)C(=O)N1)C(=O)N[C@@H](CCCCN)C(=O)N[C@@H](CC(N)=O)C(=O)N[C@@H](CC(C)C)C(=O)N[C@@H](CC(C)C)C(=O)N[C@@]1(C)CCCC=CCCC[C@@](C)(C(=O)NCC(N)=O)NC(=O)[C@H](CCCCN)NC(=O)CNC(=O)[C@H](CO)NC1=O [compound 37] (H-G[S5]FSK[S5]KGKKIKNLL[S5]SGK[S5]G-NH2; staple 2-6, 16-20)	> 200	> 200
CC[C@H](C)[C@H](NC(=O)[C@H](CCCCN)NC(=O)[C@H](CCCCN)NC(=O)CNC(=O)[C@H](CCCCN)NC(=O)[C@]1(C)CCCC=CCCC[C@](C)(NC(=O)CN)C(=O)N[C@@H](Cc2ccccc2)C(=O)N[C@@H](CO)C(=O)N[C@@H](CCCCN)C(=O)N1)C(=O)N[C@@H](CCCCN)C(=O)N[C@@H](CC(N)=O)C(=O)N[C@@H](CC(C)C)C(=O)N[C@@H](CC(C)C)C(=O)N[C@@]1(C)CCCC=CCCC[C@@](C)(C(=O)N[C@@H](CCCCN)C(N)=O)NC(=O)[C@H](CC(C)C)NC(=O)CNC(=O)[C@H](CO)NC1=O [compound 38] (H-G[S5]FSK[S5]KGKKIKNLL[S5]SGL[S5]K-NH2; staple 2-6, 16-20)	54 (≈ 23 µM)	51 (≈ 21.7 µM)
CC[C@H](C)[C@H](NC(=O)[C@H](CCCCN)NC(=O)[C@H](CCCCN)NC(=O)CNC(=O)[C@H](CCCCN)NC(=O)[C@]1(C)CCCC=CCCC[C@](C)(NC(=O)CN)C(=O)N[C@@H](Cc2ccccc2)C(=O)N[C@@H](CO)C(=O)N[C@@H](CCCCN)C(=O)N1)C(=O)N[C@@H](CCCCN)C(=O)N[C@@H](CC(N)=O)C(=O)N[C@@H](CC(C)C)C(=O)N[C@@H](CC(C)C)C(=O)N[C@@]1(C)CCCC=CCCC[C@@](C)(C(=O)N[C@@H](CCCCN)C(=O)NCC(=O)NCC(=O)N[C@@H](CCC(=O)O)C(N)=O)NC(=O)[C@H](CC(C)C)NC(=O)CNC(=O)[C@H](CO)NC1=O [compound 39] (H-G[S5]FSK[S5]KGKKIKNLL[S5]SGL[S5]KGGE-NH2; staple 2-6, 16-20)	> 200	> 200
